Measured values as given in US20250101044A1, “METAL-ORGANIC FRAMEWORK COMPOSITE AND PREPARATION METHOD AND USE THEREOF” (priority 2021, published 2025).
In brackets after ≈: the same amount, converted by molar mass.

Tested on: S. aureus
Experiment: MIC and MBC antibacterial test
Assay type: cell-based
Details: Staphylococcus aureus

Structure (SMILES): O=C(O)/C=C/c1ccc(O)c(O)c1 [CA, caffeic acid]
- MBC: 4 µg/mL (≈ 22.2 µM)
- MIC: 4 µg/mL (≈ 22.2 µM)
